Data set [1] has as its system VEGF mRNA in MCF7 cells. Nature of the data set: Real-time quantitative RT-PCR of VEGF mRNA in MCF7 cells. Type of data set: cell-based, human. The following applies: hypoxic MCF7 cells, 200 nM and 600 nM. The protocol:
We used real-time quantitative RT-PCR assays to determine the relative levels of VEGF mRNA in hypoxic cells treated with ETP compounds and control DKP compound. In parallel, cells treated with vehicle were used as controls. mRNA level of β-glucuronidase gene was used as a control in determining the relative levels of transcription.
MCF7 cells were maintained in RPMI-1640 media (Sigma) supplemented with 10% fetal bovine serum (Irvine Scientific). Cells were plated in 6-well dishes at a density of 2.4×10^5 cells/well using 2 mL of a 1.2×10^5 cell/mL suspension. […] After a 6 h incubation period at 37° C. in a humidified atmosphere with 5% CO2, hypoxia was induced by adding desferrioxamine mesylate (DFO, Sigma) to a final concentration of 300 μM and incubating cells for another 18 hours. Cells were washed twice with ice cold PBS and lysed immediately. Total RNA was isolated with RNeasy kit (Qiagen) according to the manufacturer's instructions and quantified by UV absorbance. The isolated RNA was further treated with DNase I (Ambion, DNAfree kit) to remove any remaining genomic DNA. Reverse transcription was performed with Powerscript II Reverse Transcriptase (Clontech) as recommended by the manufacturer.
Quantitative Reverse Transcript PCR (qRT-PCR) was employed to determine the effect of ETP compounds on VEGF and GLUT1 genes in HeLa cells both under normoxic and hypoxic conditions. For VEGF analysis, the forward primer 5′-AGGCCAGCACATAGGAGAGA-3′ and reverse primer 5′-TTTCCCTTTCCTCGAACTGA-3′ were used to amplify a 104-bp fragment from the 3′-translated region of the gene. For GLUT1 (SLC2A1) analysis we utilized the following sequences to yield a product of 179 bp: forward sequence 5′-TAGAAACATGGTTTTGAAATGC-3′, reverse sequence 5′-GGTAACAGGGATCAAACAGATT-3′. RNA levels were standardized by quantification of the β-glucuronidase as housekeeping gene. […] Data were analyzed with Applied Biosystems Sequence Detection System, version 1.2. […]

Data set [2] can be described thus: MTT cytotoxicity assay in MCF7 cells. Type of data set: cell-based. The following applies: human, MCF7, 24 h treatment. The protocol:
FIG. 10 MTT cytotoxicity assay for LS72 in MCF7 cells. Cells were maintained in RPMI-1640 media supplemented with 10% FBS. Cells were treated with different concentrations of LS72 for 24 hours and the amount of purple formazan formed was determined via spectrophotometry.
Based on this EC50 value of LS72 in MCF7 cells we chose to measure its effect on HIF inducible transcription at a maximum concentration of 400 nM in MCF7 cells. This is important in order to minimize the nonspecific effects on mRNA levels due to reduction in cell viability.
A general note: Tetrazolium dyes change colour on reduction, which living cells bring about.

Data set [3] relates to Glut1 mRNA in A549 cells. The experiment in a line: qRT-PCR of Glut1 mRNA in A549 cells. The note with it: 300 μM DFO. Type of data set: cell-based. Here is the method:
FIG. 13 mRNA levels of three HIF1α inducible genes: VEGF, c-Met and Glut1 in A549 cells after treatment with LS72. Data from qRT-PCR experiments showing mRNA levels of three HIF1α inducible genes, VEGF, c-Met and Glut1 in A549 after treatment of the cells in a medium with 0.2% serum with LS72 (400 nM). Hypoxia was induced 300 μM by DFO. Error bars are ±s.e.m for the experiments performed in […]. Error bars are ±s.e.m. of experiments performed in triplicate. ***P<0.001, ** P<0.01, t test.
FIG. 17 qRT-PCR data for Glut1mRNA in 85% confluent A549 cells treated with LS72 at three different concentrations. qRT-PCR assays were performed in order to determine the mRNA levels for Glut1 in A549 cell line treated with LS72 at concentrations: 100 nM, 400 nM, 1600 nM. Hypoxia was induced with DFO (300 μM). Error bars are ±sem for the experiments performed in triplicate. Error bars are ±s.e.m. of experiments performed in triplicate. *** P<0.001, ** P<0.01, t test.
After tests with various serum levels in the media and hypoxia induction methods, the conditions that worked remarkably and consistently well for the induction of HIF1α dependent genes were to keep A549 cells in 2% serum followed by treating cells with compound or control in the media with 0.2% serum for 48 h (FIG. 13). […]
On the technique in general: Quantitative PCR measures a nucleic acid by following its amplification.

In data set [4] the test system is VEGF protein in MCF7 cells. Nature of the data set: Western blot of VEGF protein levels in MCF7 cells. Type of data set: cell-based, human. The following applies: MCF7, 400 nM, 300 μM DFO. Here is the method:
Western blot analysis of VEGF and c-Met protein levels. MCF7 and MDA-MB-231 cells were plated in 60 mm diameter cell culture dishes (BD Falcon) to a density of 1.0×10^6 cells/mL. […] All samples contained a final concentration 0.1-0.2% v/v of DMSO. After a 6 hour incubation period, hypoxia was induced with 300 μM DFO in MCF7 and with […] in MDA-MB-231 cells. Samples were incubated for an additional 18 hours. Total cellular proteins were extracted from the cells using cell lysis buffer according to manufacturer's protocol (Cell Signaling). Protein concentrations were measured with BCA Protein assay kit (Pierce/Thermo Scientific). Equal amounts of protein samples were subjected to SDS-PAGE and electroblotted to PVDF membrane (Bio-Rad). These were probed first with an anti-VEGF mouse monoclonal (sc-57496, Santa Cruz Biotechnology) or anti c-Met rabbit polyclonal antibody (sc-10, Santa Cruz Biotechnology), stripped with Restore Western Blot Stripping Buffer (Pierce/Thermo Scientific) and re-probed with a rabbit polyclonal anti-β-actin antibody (4867, Cell Signaling).
After washing with tris-buffered saline—Tween 20 (TBST) solution, the membranes were incubated with horseradish peroxidase (HRP)-conjugated secondary antibodies (Santa Cruz Biotechnology). Signals were detected by using SuperSignal chemiluminescent kit (Pierce/Thermo Scientific).
On the technique in general: In western blotting, separated proteins are transferred to a membrane and probed.

One compound from US9416145B2, “Compositions and methods for inhibiting activity of hypoxia-inducible transcription factor complex and its use for treatment of tumors” (priority 2012, dated 2016) can be followed below.

`CN1C(=O)[C@]2(Cc3ccc(CCc4ccc(C[C@@]56SS[C@@](CO)(C(=O)N5C)N(C)C6=O)cc4)cc3)SS[C@@]1(CO)C(=O)N2C` (racemic) [LS72, 4,4′-((ethane-1,2-diylbis(4,1-phenylene))bis(methylene))bis(1-(hydroxymethyl)-5,7-dimethyl-2,3-dithia-5,7-diazabicyclo[2.2.2]octane-6,8-dione)]: the “effect on VEGF mRNA level (in words)” value in data set [1] was “downregulated VEGF”. A half-maximal effect in data set [2] (EC50 at 24 h) was put at 547 nM. For the same compound, the “Glut1 hypoxic transcriptional up-regulation, dose response” value in data set [3] (A549 85% confluent, 100 nM, 400 nM, 1600 nM) is “dose dependent decrease”. The “reduction of Glut1 mRNA levels” value in data set [3] (A549, LS72 400 nM, 0.2% serum, 48 h) is “more than 60%”. The “VEGF protein levels (western blot)” value in data set [4] was “significant downregulation”.
